Where “and” joins values, the source holds several entries; their conditions need not be identical. Identical values can stand only once.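 All cell lines were grown in 96-well plates and treated with compound for 48 hours. The concentration for 50% growth inhibition is given as GI50. At the TGI there is no net growth.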 A value given as a limit tells only on which side of the number the result lay.

Results on 35 compounds are retold here after PubChem BioAssay (NCI).

What all share (assay): DTP human tumour cell line panel, 48 h
In test [1] the test system is CCRF-CEM leukemia.
The subject of test [2] is COLO 205 colon.
For test [3], the system named is HOP-62 NSCLC.
For test [4], the system named is NCI-H226 lung.
In test [5] the test system is OVCAR-3 ovarian.
Test [6] relates to SK-MEL-28 melanoma.
The subject of test [7] is DU-145 prostate.
The test system of test [8] is MDA-MB-231 breast.
For test [9], the system named is NCI/ADR-RES ovarian.
Test [10] has as its system T-47D breast.

`O=S(=O)(/C=C/c1ccc(F)cc1)Cc1ccc(CS(=O)(=O)/C=C/c2ccc(F)cc2)cc1`: the TGI in test [1], in [2], in [3], in test [4], in test [5] and in test [6] was above 100 µM in each case.
On to `C[C@H](OCc1ccccc1)C(=O)N1CCS(=O)(=O)N2CCC[C@@H]2C1=O`, for which the TGI in [1], in test [2], in [3], in [4], in test [5] and in [6] was above 100 µM in each case.
In the case of `O=C1c2cc3c(cc2[C@@H]2[C@H]1c1ccc([N+](=O)[O-])cc1C(=O)N2CCCBr)OCO3`, the GI50 is below 0.01 µM in test [2]; below 0.01 µM in test [7]; below 0.01 µM in [3]; 0.187 µM in test [8]; below 0.01 µM in [4]; below 0.01 µM in test [9]. Also, the GI50 in [5] was below 0.037 µM; in [6], below 0.01 µM; in test [10] it was below 0.01 µM. Also, the total growth inhibition concentration (TGI) in test [2] is above 100 µM; in [3] it was below 0.0486 µM; in test [8] it was 0.699 µM; in test [4], below 0.01 µM; in [9], 0.0177 µM; in [6] it was above 100 µM. In addition, in test [10], the TGI is above 100 µM.
`O=C1C(c2ccccc2)=C(O)c2cccc3cccc1c23`: the TGI in test [1], in test [2], in test [4], in test [5] and in test [6] was above 100 µM in each case.
Consider `Cc1ccc2c(c1)-c1c3c(nn1-c1ccccc1)-c1ccccc1SC3O2` (configuration not stated), for which the TGI in test [1], in test [2], in test [3], in test [5] and in [6] was above 100 µM each time.
With `CCOC(=O)CCC(NC(=O)OCc1ccccc1)C(=O)NC(CCC(=O)OCC)C(=O)NC(CCC(=O)OCC)C(=O)NC(CCC(=O)OCC)C(=O)NC(CCC(=O)OCC)C(=O)NC(CCC(=O)OCC)C(=O)NC(CCC(=O)OCC)C(=O)OCC` (configuration not stated), the TGI in [1], in test [7], in [3], in test [8], in test [4] and in test [5] was above 100 µM in each case. Further, the TGI in [6] and in test [10] was above 100 µM each time.
`OC(CCNC12CC3CC(CC(C3)C1)C2)c1ccccc1` (configuration not stated): the TGI in [1], in [2], in test [3], in test [4], in [5] and in [6] was above 100 µM each time.
`COc1ccc(/C=C/c2cc(OC)c(OC)c(OC)c2)cc1`: the TGI in [1] was above 100 µM; in [2], 11 µM; in [3] it was 60.1 µM; in test [4], above 87.7 µM; in test [5] it was 17.7 µM; in test [6], 96.8 µM.
On to `COc1cc2ccnc3c2c(c1OC)-c1coc(SC)c1-3`, for which the TGI in test [2] and in test [3] was above 100 µM each time.
Turning to `CCOc1cc2c(C(=O)CC)c(O)ccc2o1`, the TGI in test [1] is above 85.1 µM; in test [2], above 100 µM; in test [3], above 100 µM; in test [4], above 100 µM; in test [5], above 100 µM; in [6] it was above 58.4 µM.
Regarding `C=C/C=C/NC(=O)OCc1ccccc1`, the TGI in test [1], in test [2], in test [3], in test [5] and in test [6] was above 100 µM throughout.
As for `O=C(c1ccc(Cl)cc1Cl)C1[C@H]2C(=O)N(c3ccc(Cc4ccc(N5C(=O)[C@@H]6ON(c7ccccc7)C(C(=O)c7ccc(Cl)cc7Cl)[C@@H]6C5=O)cc4)cc3)C(=O)[C@H]2ON1c1ccccc1` (some centres not stated), the TGI in [1], in [2], in test [3], in test [4], in [5] and in test [6] was above 50 µM throughout.
As to `CC(CN(C)C)/C(=N\Nc1ccccc1)c1ccccc1` (configuration not stated), the TGI in [1] is 29.3 µM; in [2], 2.55 µM; in test [3] it was 12 µM; in test [5] it was 6.83 µM; in [6], 5.79 µM.
As for `NCCCC[C@@H]1NC(=O)[C@H]2CCCN2C(=O)[C@H](Cc2ccccc2)CNC(=O)[C@H](Cc2ccccc2)NC1=O`, the GI50 in test [2], in [7], in [3], in [8], in test [4] and in test [9] was above 37.5 µM each time. Besides, the GI50 in [5], in [6] and in test [10] was above 37.5 µM in each case. Also, the TGI in [2], in test [7], in [3], in test [8], in test [4] and in [9] was above 37.5 µM throughout. Besides, the TGI in test [5], in test [6] and in test [10] was above 37.5 µM in each case.
In the case of `COc1c(O)c2c3c(cc(C)cc3c1C(C)C)OC2`, the TGI in test [1], in test [2], in test [4], in test [5] and in [6] was above 100 µM each time.
In the case of `NNC(=O)C1CCC(=O)N1S(=O)(=O)c1ccccc1` (configuration not stated), the TGI in test [1], in [2], in test [3], in [4], in [5] and in [6] was above 100 µM throughout.
Take `CCOC(C[C@H](O[Si](C)(C)C(C)(C)C)[C@H]1COC(=S)S1)OCC`: the concentration for total growth inhibition (TGI) in [1], in test [2], in test [3], in [4], in [5] and in test [6] was above 100 µM throughout.
Turning to `COc1cc2c[n+](C)c3c4cc(OC)c(OC(C)C)cc4ccc3c2cc1OC`, the TGI was above 100 µM in [1]; 31.2 µM in test [2]; above 100 µM in test [3]; above 100 µM in [4]; 63.8 µM in test [5]; above 100 µM in test [6].
In the case of `C[C@@]12CCC(=O)c3coc(c31)C(=O)c1cc3c(cc12)C(=O)C=CC3=O`, the TGI in test [1] is above 23.2 µM; in test [2], > 1 µM and 29.7 µM; in test [3] it was above 100 µM; in test [4] it was > 1 µM and 86 µM; in test [5], > 1 µM and 32.7 µM; in [6], > 1 µM and 29.9 µM. The GI50 in test [2], in test [3], in test [4], in [5] and in [6] was above 1 µM in each case.
Regarding `CSc1nnc(CCC(=O)Nc2c(C)cccc2C)o1`, the TGI in test [1], in [2], in [3], in test [4], in [5] and in test [6] was above 100 µM in each case.
In the case of `O=C1C=CC(=O)C2=C1[C@@H](O)C1CC=CC3C(=O)O[C@@H]2C31` (some centres not stated), the TGI in test [1] is 42.9 µM; in [2] it was 37 µM; in [3] it was above 100 µM; in [4], above 75.1 µM; in test [5] it was 36.8 µM; in test [6] it was above 62.3 µM.
As for `CCOC(=O)CC[C@H](NC(=O)c1nc[nH]c1[N+](=O)[O-])C(=O)OCC`, the TGI in test [1], in [2], in test [3], in [4], in [5] and in test [6] was above 100 µM throughout.
As for `CCOC(=O)/C(C1=NCCN1)=C(\O)c1ccccc1`, the TGI in test [1], in [2], in test [3], in test [4], in test [5] and in test [6] was above 100 µM each time.
Regarding `O=C1CCCCC1S(=O)(=O)c1ccccc1` (configuration not stated), the TGI in [1], in test [2], in test [3], in test [4], in [5] and in test [6] was above 100 µM each time.
Turning to `CCCCCCCCCCCCCCCC(=O)OCC1OC(n2cc(F)c(=O)[nH]c2=O)C(N)C(O)C1O` (configuration not stated), the total growth inhibition concentration (TGI) in test [1] was found to be 31.7 µM; in test [2] it was 34 µM; in test [3], 37.4 µM; in [4], 35.9 µM; in test [5], 9.72 µM; in test [6], 31.1 µM.
Turning to `Cc1cn(C2CC3C(COCN3O)O2)c(=O)[nH]c1=O` (configuration not stated), the TGI in test [1], in test [2], in [3], in test [4], in test [5] and in test [6] was above 100 µM throughout.
Consider `Cc1ccccc1C1OC(=O)c2ccc3ccccc3c21` (configuration not stated), for which the TGI in test [1] turned out to be 17.6 µM; in test [2] it was 2.28 µM; in test [3], 5.35 µM; in [4], 12.2 µM; in test [5] it was 16.2 µM; in [6], 10.1 µM.
Regarding `O=[N+]([O-])c1ccc(-n2nnc(C3=NCCN3)c2-c2ccccc2)cc1`, the TGI in test [1], in test [2], in test [3], in test [4], in test [5] and in test [6] was above 100 µM each time.
For `Cc1nc(Nc2ccccc2)sc1C(=O)CC(=O)C(=O)Nc1c(C(C)C)cccc1C(C)C`, the TGI in test [1], in test [2], in test [3], in [4], in test [5] and in [6] was above 100 µM throughout.
As to `C=CCN=C(N/N=C/c1ccc([N+](=O)[O-])o1)NS(=O)(=O)c1cc(C(=O)Nc2ccc(Cl)cc2)c(Cl)cc1SC`, the GI50 in test [1] was 4.81 µM; in [7], 2.72 µM; in test [3] it was 1.8 µM; in [4] it was 13.5 µM; in [9], above 100 µM; in [5], 1.57 µM. For the same compound, the GI50 is 25.9 µM in test [6] and 5.96 µM in test [10]. Moreover, the TGI in [1] is above 100 µM; in test [2], above 100 µM; in test [7], above 35.2 µM; in test [3], 7.32 µM; in test [4], above 100 µM; in test [9] it was above 100 µM. Further, the TGI is 14.1 µM in [5], above 100 µM in test [6] and above 51.5 µM in test [10].
With `C=C1CC2OC(=O)C(=C)C2C(O)C2C(=C)CCC12` (configuration not stated), the TGI in [1] worked out at 10.2 µM; in test [2], 12.9 µM; in test [4], 35.5 µM; in test [5], 22.3 µM; in test [6] it was 21 µM.
As to `c1cncc(C2N3CCCCC3[C@@H]3c4[nH]c5ccccc5c4CCN23)c1` (some centres not stated), the total growth inhibition concentration (TGI) in [1], in test [3], in test [5] and in test [6] was above 100 µM in each case.
As to `OC1(C23CC4CC(CC(C4)C2)C3)CSCC1(O)C12CC3CC(CC(C3)C1)C2` (configuration not stated), the TGI in test [1] was above 10 µM; in test [2] it was above 100 µM; in test [3], above 100 µM; in [4], above 100 µM; in test [5], above 100 µM; in test [6], above 100 µM.
With `CCCCCCC[CH2][Sn]([CH2]CCCCCCC)([O]c1cccc2cccnc12)[O]c1cccc2cccnc12`, the GI50 in test [1] was 0.506 µM; in test [2], 1.86 µM; in test [3] it was 2.11 µM; in [4] it was 2.24 µM; in [5], 1.85 µM. For the same compound, the total growth inhibition concentration (TGI) in [1] was 3.25 µM; in [2], 3.41 µM; in [3], 3.67 µM; in test [4], 5.53 µM; in [5], 6.62 µM.
`COc1ccc2c(c1)C(=O)c1ccc(OC)cc1C2=S`: the TGI in [1], in test [2], in test [3], in test [4], in test [5] and in test [6] was above 100 µM in each case.
